Tested on: pre-existing HCL tumors (JOK-Luc)
Assay: Intraperitoneal JOK-Luc HCL xenograft treated with antibody, luminescence imaging
Format: in vivo
Settings: JOK-Luc injected into peritoneum of Hsd:Athymic Nude-Foxn1nu mice; antibody intraperitoneally at day 4 and day 6; imaged at day 7; compared with control IgG antibody
Procedure: JOK-1 cells were stably transfected with the plasmid pGL4.5[Luc2/CMV/Neo] that contains the firefly luciferase gene under control of the constitutive gene promoter of cytomegalovirus. This luciferase cell line was then injected into the peritoneum of mice of the strain Hsd:Athymic Nude-Foxn1^nu. After 3 days, mice were subjected to whole body imaging following intravenous injection of D-Luciferin. Those mice where tumor was detected were intraperitoneally injected at day 4 and day 6 with the anti-CD38 antibody SAR650984 or an IgG control antibody. At day 7, mice were again imaged. Depicted are superimposed luminescence and X-ray images of three mice injected with SAR650984 (CD38) and three injected with the control antibody (Ctrl).
Experiments performed with JOK-CD38-KO indicate that targeting CD38 expression in HCL may have therapeutic efficacy. This was tested using the parent of JOK-CD38-KO where CD38 expression remained intact. The parental line was engineered such that it constitutively produced luciferase and, therefore, could be visualized by luminescence in the presence of luciferin. […]
The role of CD38 in HCL was assessed using 5×10^6 of the cell line pools JOK-CD38-WT or JOK-CD38-KO injected subcutaneously into male or female mice that were 6-8 weeks old and of the strain NOD.Cg-Prkdc^scid IL2rγ^tm1Wj1/SzJ (Jackson Laboratory, Bar Harbor, Me., USA). […]

SAR650984: humanized anti-CD38 antibody SAR650984 (Sanofi Oncology)
effect on pre-existing HCL tumors by luminescence imaging: tended to be reduced
